According to patent US7709521B2, “Substituted indole derivatives for pharmaceutical compositions for treating respiratory diseases” (AstraZeneca AB, priority 2003, dated 2010):

How the values were obtained:
rhCRTh2 = target: T1, rhCRTh2 (Homo sapiens, UniProt Q9Y5Y4); experiment: Ligand binding assay ([3H]PGD2 displacement, SPA, HEK cell membranes); details: [3H]PGD2 binding to membranes of HEK cells expressing rhCRTh2/Gα16, SPA beads, room temperature, 2 hours
T1 construct: expressed in transfected cells; host or cells: HEK cells (membrane preparation)
T1 sequence (Q9Y5Y4 1-395): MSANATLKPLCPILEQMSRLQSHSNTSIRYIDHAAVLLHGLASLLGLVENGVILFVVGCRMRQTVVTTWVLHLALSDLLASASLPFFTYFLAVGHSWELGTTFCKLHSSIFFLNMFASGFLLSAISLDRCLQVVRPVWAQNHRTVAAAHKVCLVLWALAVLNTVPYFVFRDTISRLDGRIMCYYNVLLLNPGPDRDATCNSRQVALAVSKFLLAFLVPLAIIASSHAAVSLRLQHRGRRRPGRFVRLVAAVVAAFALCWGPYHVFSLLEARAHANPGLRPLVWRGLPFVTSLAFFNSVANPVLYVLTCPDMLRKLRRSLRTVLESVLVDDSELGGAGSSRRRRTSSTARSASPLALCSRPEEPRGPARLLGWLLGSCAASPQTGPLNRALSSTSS
Protocol: [^3H]PGD2 was purchased from Perkin Elmer Life Sciences with a specific activity of 100-210 Ci/mmol.
HEK cells expressing rhCRTh2/Gα16 were routinely maintained in DMEM containing 10% Foetal Bovine Serum (HyClone), 1 mg/ml geneticin, 2 mM L-glutamine and 1% non-essential amino acids. For the preparation of membranes, the adherent transfected HEK cells were grown to confluence in two layer tissue culture factories (Fisher, catalogue number TKT-170-070E). Maximal levels of receptor expression were induced by addition of 500 mM sodium butyrate for the last 18 hours of culture. The adherent cells were washed once with phosphate buffered saline (PBS, 50 ml per cell factory) and detached by the addition of 50 ml per cell factory of ice-cold membrane homogenisation buffer [20 mM HEPES (pH 7.4), 0.1 mM dithiothreitol, 1 mM EDTA, 0.1 mM phenyl methyl sulphonyl fluoride and 100 μg/ml bacitracin]. Cells were pelleted by centrifugation at 220×g for 10 minutes at 4° C., re-suspended in half the original volume of fresh membrane homogenisation buffer and disrupted using a Polytron homogeniser for 2×20 second bursts keeping the tube in ice at all times. […] The final pellet was re-suspended in 4 ml of membrane homogenisation buffer per cell factory used and the protein content determined. […]
All assays were performed in Corning clear bottomed, white 96-well NBS plates (Fisher). […] (The optimum coating concentrations were determined for each batch of membranes) The beads were pelleted by centrifugation (800×g for 7 minutes at 4° C.), washed once with assay buffer (50 mM HEPES pH 7.4 containing 5 mM magnesium chloride) and finally re-suspended in assay buffer at a bead concentration of 10 mg/ml.
Compounds and DK-PGD2 were dissolved in DMSO and diluted in the same solvent to 100× the required final concentration. […] The assay plate was incubated at room temperature for 2 hours and counted on a Wallac Microbeta liquid scintillation counter (1 minute per well).

melting point | IC50 (rhCRTh2) [nM] | SMILES
204 to 207 °C | – | Cc1c(Oc2ccc(S(C)(=O)=O)cc2)c2cc(F)ccc2n1CC(=O)O [Example 2, 5-Fluoro-2-methyl-3-[4-(methylsulfonyl)phenoxy]-1H-indole-1-acetic acid]
– | 89.1 | Cc1c(Oc2ccc(Cl)cc2)c2cc(S(C)(=O)=O)ccc2n1CC(=O)O [Example 5, 3-(4-chlorophenoxy)-2-methyl-5-(methylsulfonyl)-1H-indole-1-acetic acid]
– | 178 | Cc1c(Oc2ccc(C(=O)O)cc2)c2cc(F)ccc2n1CC(=O)O [Example 9, 3-(4-Carboxyphenoxy)-5-fluoro-2-methyl-1H-indole-1-acetic acid]
217 to 218 °C | – | CNC(=O)c1ccc(Oc2c(C)n(CC(=O)O)c3ccc(F)cc23)cc1 [Example 10, 5-Fluoro-2-methyl-3-[4-[(methylamino)carbonyl]phenoxy]-1H-indole-1-acetic acid]
220 to 222 °C | – | CCNC(=O)c1ccc(Oc2c(C)n(CC(=O)O)c3ccc(F)cc23)cc1 [Example 11, 3-[4-[(Ethylamino)carbonyl]phenoxy]-5-fluoro-2-methyl-1H-indole-1-acetic acid]
218 to 219 °C | – | Cc1c(Oc2ccc(C(=O)NC(C)C)cc2)c2cc(F)ccc2n1CC(=O)O [Example 12, 5-Fluoro-2-methyl-3-[4-[[(1-methylethyl)amino]carbonyl]phenoxy]-1H-indole-1-acetic acid]
215 to 216 °C | – | Cc1c(Oc2ccc(C(=O)O)cc2)c2cc(Cl)ccc2n1CC(=O)O [Example 13, 3-(4-Carboxyphenoxy)-5-chloro-2-methyl-1H-indole-1-acetic acid]
195 to 196 °C | – | COC(=O)c1ccc(Oc2c(C)n(CC(=O)O)c3ccc(F)cc23)cc1 [Example 14, 5-Fluoro-3-[4-(methoxycarbonyl)phenoxy]-2-methyl-1H-indole-1-acetic acid]
196 to 197 °C | – | COC(=O)c1ccc(Oc2c(C)n(CC(=O)O)c3ccc(Cl)cc23)cc1 [Example 15, 5-Chloro-3-[4-(methoxycarbonyl)phenoxy]-2-methyl-1H-indole-1-acetic acid]
225 °C (dec.) | – | CNC(=O)c1ccc(Oc2c(C)n(CC(=O)O)c3ccc(Cl)cc23)cc1 [Example 16, 5-Chloro-2-methyl-3-[4-[(methylamino)carbonyl]phenoxy]-1H-indole-1-acetic acid]
220 °C (dec.) | – | CCNC(=O)c1ccc(Oc2c(C)n(CC(=O)O)c3ccc(Cl)cc23)cc1 [Example 17, 5-Chloro-3-[4-[(ethylamino)carbonyl]phenoxy]-2-methyl-1H-indole-1-acetic acid]
< 275 °C | – | Cc1c(Oc2ccc(C(=O)NC(C)C)cc2)c2cc(Cl)ccc2n1CC(=O)[O-].[Na+] [Example 18, Sodium 5-Chloro-2-methyl-3-[4-[[(1-methylethyl)amino]carbonyl]phenoxy]-1H-indole-1-acetate]

SMILES | melting point | IC50 (rhCRTh2) [nM]
Cc1c(Oc2ccc(Cl)cc2)c2cc(C(F)(F)F)ccc2n1CC(=O)O [Example 6, 3-(4-chlorophenoxy)-2-methyl-5-(trifluoromethyl)-1H-indole-1-acetic acid] | – | 11.2
